According to PMC6220849, “Mechanistic and structural studies of KDM‐catalysed demethylation of histone 1 isotype 4 at lysine 26” (Febs Letters, 2018):
Square brackets hold non-standard residues; d marks the D form. Ends that are not written are not given here. Me3 = N-epsilon-trimethyl on lysine; Lys(Me) = CNCCCC[C@H](N)C(=O)O

B1: H1.4(18–32)K26me3 peptide (histone 1 isotype 4, residues 18-32, N-epsilon-trimethyllysine at K26) (peptide)
peptide: TPVKKKARK(Me3)SAGAAK-NH2
notes: histone H1.4 (histone 1 isotype 4), residues 18-32; only residues 24-29 are seen in the crystal structure; also called H1.4K26me3; H1.4K26me3 peptide; source: synthetic peptide

Key:
KDM3A (KDM3A515–1317) = assay: MALDI-TOF MS demethylation activity assay, KDM3A; format: biochemical, human; parameters: key: 🟢: Indicates that clear demethylation activity was observed; 🟡: Indicates that low level demethylation activity was observed (<10% conversion after 1 h); 🔴: Indicates no activity under the stated conditions (1 μM KDM, 10 μM peptide); 🟡*: *Indicates demethylation activity was only observed with 5 μM KDM; settings: peptide as substrate, 1 μM KDM, 10 μM peptide, 50 mM HEPES pH 7.5, Fe(II) 10 μM, ascorbate 100 μM, 2OG 200 μM, 1 mM TCEP, 1 h at 37 °C
Experimental: (§1) Recombinant proteins (1 μM) were incubated with peptides (10 μM, sequences are given in Table S1) in 50 mM HEPES, pH 7.5 with addition of Fe(II) ammonium sulfate (10 μM), sodium ascorbate (100 μM) and 2‐oxoglutaric acid (200 μM). Reactions with KDM3A and KDM7A also contained 1 mM tris(2‐carboxyethyl)phosphine hydrochloride. No enzyme reactions were included as negative controls. Reactions were incubated for 1 h at 37 °C before being quenched with 1 : 1 (v/v) methanol. Analysis was carried out by MALDI‐TOF MS (Bruker, Billerica, MA, USA), with demethylation observed as mass shifts of 14 Da.
(§2) The propensity of human JmjC KDMs to catalyse demethylation at H1.4K26 was investigated using recombinant forms of the catalytic domains of representatives of each human JmjC KDM subfamily (KDM2‐7) and fragment peptides (Table S1) 37. Three peptides with identical sequences, corresponding to residues 18–32 of histone H1.4 (H2N‐[…]‐CONH2), but containing either a N ^ε‐tri‐, di‐ or monomethyllysine at K26 were synthesised (Fig. 1B and Table S1). Activity assays monitoring JmjC KDM‐catalysed demethylation of the peptides were then carried out; samples were prepared containing each peptide, 2‐oxoglutarate (2OG), ferrous iron, ascorbate and individual representatives from each JmjC KDM subfamily (KDM2A 38, KDM3A 21, KDM4E 22, KDM5C 39, 40, KDM6B 41, KDM7A 42).

KDM4C (KDM4C1–359) = assay: MALDI-TOF MS demethylation activity assay, KDM4C; format: biochemical, human; parameters: key: 🟢: Indicates that clear demethylation activity was observed; 🟡: Indicates that low level demethylation activity was observed (<10% conversion after 1 h); 🔴: Indicates no activity under the stated conditions (1 μM KDM, 10 μM peptide); 🟡*: *Indicates demethylation activity was only observed with 5 μM KDM; settings: peptide as substrate, 1 μM KDM, 10 μM peptide, 50 mM HEPES pH 7.5, Fe(II) 10 μM, ascorbate 100 μM, 2OG 200 μM, 1 h at 37 °C
Experimental: as §1
(§3) Given the activity observed with KDM4E and KDM7A, we decided to investigate the intra‐subfamily conservation of this demethylation activity. The demethylation activity of the other subfamily members (KDM4A‐D and KDM7B) was therefore screened. […] Note that as with H3K9, demethylation of the monomethylated H1.4K26 peptide was only observed with KDM4E, under the stated conditions 24.

KDM4A (KDM4A1–359) = assay: MALDI-TOF MS demethylation activity assay, KDM4A; format: biochemical, human; parameters: key: 🟢: Indicates that clear demethylation activity was observed; 🟡: Indicates that low level demethylation activity was observed (<10% conversion after 1 h); 🔴: Indicates no activity under the stated conditions (1 μM KDM, 10 μM peptide); 🟡*: *Indicates demethylation activity was only observed with 5 μM KDM; settings: peptide as substrate, 1 μM KDM, 10 μM peptide, 50 mM HEPES pH 7.5, Fe(II) 10 μM, ascorbate 100 μM, 2OG 200 μM, 1 h at 37 °C
Experimental: as §1, §3

KDM7A (KDM7A38–480) = assay: MALDI-TOF MS demethylation activity assay, KDM7A; format: biochemical, human; settings: peptide as substrate; MALDI-TOF MS; 1 μM KDM, 10 μM peptide, 50 mM HEPES pH 7.5, Fe(II) 10 μM, ascorbate 100 μM, 2OG 200 μM, 1 mM TCEP, 1 h at 37 °C
Experimental: as §1, §2
(§4) N ^ε‐Trimethylated H3K4 binds to the plant homeobox domain of KDM7B, targeting the N ^ε‐dimethyllysine at H3K9 to the catalytic domain, and thus promoting demethylation 29, 44. To test whether similar targeting may occur with H1.4, promoting activity at H1.4K26, an H1.4 peptide was synthesised containing di‐N ^ε‐methyllysine at K26 and tri‐N ^ε‐methyllysine at K21 (i.e. at the equivalent position in the sequence to K4 in the H3 peptide, Fig. 1B, Table S1). Monomethylation at H1.4K21 has previously been observed by proteomic mass spectrometry 45. With the aim of enhancing activity, the enzyme concentration was increased from 1 μM to 5 μM, and time course analyses were conducted with both KDM7A and KDM7B, both with the new peptide (H1.4(18–32)K21me3K26me2) and the H1.4 peptides methylated only at K26 (Fig. 2B). […] Thus, it appears unlikely that N ^ε‐trimethylation at H1.4K21 promotes demethylation at H1.4K26 by KDM7B.

KDM5C (KDM5C1–765) = assay: MALDI-TOF MS demethylation activity assay, KDM5C; format: biochemical, human; parameters: key: 🟢: Indicates that clear demethylation activity was observed; 🟡: Indicates that low level demethylation activity was observed (<10% conversion after 1 h); 🔴: Indicates no activity under the stated conditions (1 μM KDM, 10 μM peptide); 🟡*: *Indicates demethylation activity was only observed with 5 μM KDM; settings: peptide as substrate, 1 μM KDM, 10 μM peptide, 50 mM HEPES pH 7.5, Fe(II) 10 μM, ascorbate 100 μM, 2OG 200 μM, 1 h at 37 °C
Experimental: as §1, §2

KDM2A (KDM2A1–557) = assay: MALDI-TOF MS demethylation activity assay, KDM2A; format: biochemical, human; parameters: key: 🟢: Indicates that clear demethylation activity was observed; 🟡: Indicates that low level demethylation activity was observed (<10% conversion after 1 h); 🔴: Indicates no activity under the stated conditions (1 μM KDM, 10 μM peptide); 🟡*: *Indicates demethylation activity was only observed with 5 μM KDM; settings: peptide as substrate, 1 μM KDM, 10 μM peptide, 50 mM HEPES pH 7.5, Fe(II) 10 μM, ascorbate 100 μM, 2OG 200 μM, 1 h at 37 °C
Experimental: as §1, §2

KDM7B (PHF8; KDM7B1–447) = assay: MALDI-TOF MS demethylation activity assay, KDM7B (PHF8); format: biochemical, human; parameters: key to demethylation activity on methylated H1.4 peptide: 🟢: Indicates that clear demethylation activity was observed; 🟡: Indicates that low level demethylation activity was observed (<10% conversion after 1 h); 🔴: Indicates no activity under the stated conditions (1 μM KDM, 10 μM peptide); 🟡*: *Indicates demethylation activity was only observed with 5 μM KDM; settings: peptide as substrate; MALDI-TOF MS; 1 μM KDM (* = only with 5 μM KDM), 10 μM peptide, 50 mM HEPES pH 7.5, Fe(II) 10 μM, ascorbate 100 μM, 2OG 200 μM, 1 h at 37 °C
Experimental: as §1, §3, §4

KDM6B (KDM6B1141–1590) = assay: MALDI-TOF MS demethylation activity assay, KDM6B; format: biochemical, human; parameters: key: 🟢: Indicates that clear demethylation activity was observed; 🟡: Indicates that low level demethylation activity was observed (<10% conversion after 1 h); 🔴: Indicates no activity under the stated conditions (1 μM KDM, 10 μM peptide); 🟡*: *Indicates demethylation activity was only observed with 5 μM KDM; settings: peptide as substrate, 1 μM KDM, 10 μM peptide, 50 mM HEPES pH 7.5, Fe(II) 10 μM, ascorbate 100 μM, 2OG 200 μM, 1 h at 37 °C
Experimental: as §1, §2

KDM4B (KDM4B1–359) = assay: MALDI-TOF MS demethylation activity assay, KDM4B; format: biochemical, human; parameters: key: 🟢: Indicates that clear demethylation activity was observed; 🟡: Indicates that low level demethylation activity was observed (<10% conversion after 1 h); 🔴: Indicates no activity under the stated conditions (1 μM KDM, 10 μM peptide); 🟡*: *Indicates demethylation activity was only observed with 5 μM KDM; settings: peptide as substrate, 1 μM KDM, 10 μM peptide, 50 mM HEPES pH 7.5, Fe(II) 10 μM, ascorbate 100 μM, 2OG 200 μM, 1 h at 37 °C
Experimental: as §1, §3

KDM4D (KDM4D1–359) = assay: MALDI-TOF MS demethylation activity assay, KDM4D; format: biochemical, human; parameters: key: 🟢: Indicates that clear demethylation activity was observed; 🟡: Indicates that low level demethylation activity was observed (<10% conversion after 1 h); 🔴: Indicates no activity under the stated conditions (1 μM KDM, 10 μM peptide); 🟡*: *Indicates demethylation activity was only observed with 5 μM KDM; settings: peptide as substrate, 1 μM KDM, 10 μM peptide, 50 mM HEPES pH 7.5, Fe(II) 10 μM, ascorbate 100 μM, 2OG 200 μM, 1 h at 37 °C
Experimental: as §1, §3

[1] = biological target: T1, KDM4A(1-359), catalytic domain of human histone lysine demethylase KDM4A (human, UniProt O75164 1-359); assay: crystal structure; co-crystals of KDM4A(1-359).Ni(II).H1.4(18-32)K26me3.NOG; sitting drops at 4 °C, 0.1 M MIB buffer pH 6.0, 25% w/v PEG 1500; 10 mg/mL KDM4A, 5 mM peptide, 5 mM NOG, 4 mM NiCl2; settings: both partners purified
T1 construct: KDM4A, human, catalytic domain, residues 1-359; In the crystal the active site holds Ni(II) (in place of Fe(II)) and N-oxalylglycine (NOG)
T1 sequence (looked up): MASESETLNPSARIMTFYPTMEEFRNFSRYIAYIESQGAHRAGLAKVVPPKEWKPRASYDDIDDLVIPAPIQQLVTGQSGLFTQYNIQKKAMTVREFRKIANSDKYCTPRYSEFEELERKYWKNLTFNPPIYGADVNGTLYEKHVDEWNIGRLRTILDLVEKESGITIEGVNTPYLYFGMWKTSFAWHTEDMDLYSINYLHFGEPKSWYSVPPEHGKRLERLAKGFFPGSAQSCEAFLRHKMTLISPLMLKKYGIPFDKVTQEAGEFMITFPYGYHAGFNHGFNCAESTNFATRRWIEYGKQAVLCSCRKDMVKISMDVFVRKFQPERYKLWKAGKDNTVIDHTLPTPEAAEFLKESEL

Molecule	demethylation activity on methylated H1.4 peptide (KDM3A (KDM3A515–1317))	demethylation activity on methylated H1.4 peptide (KDM4C (KDM4C1–359))	demethylation activity on methylated H1.4 peptide (KDM4A (KDM4A1–359))	demethylation activity on methylated H1.4 peptide (KDM7A (KDM7A38–480))	demethylation activity on methylated H1.4 peptide (KDM5C (KDM5C1–765))	demethylation activity on methylated H1.4 peptide (KDM2A (KDM2A1–557))	demethylation activity on methylated H1.4 peptide (KDM7B (PHF8; KDM7B1–447))	demethylation activity on methylated H1.4 peptide (KDM6B (KDM6B1141–1590))	demethylation activity on methylated H1.4 peptide (KDM4B (KDM4B1–359))	demethylation activity on methylated H1.4 peptide (KDM4D (KDM4D1–359))	binding result [1]
TPVKKKAR[Lys(Me)]SAGAAK [H1.4(18–32)K26me1, peptide of residues 18–32 of histone H1.4 with N ε-monomethyllysine at K26]	🔴	🔴	🔴	🟡 (Indicates that low level demethylation activity was observed (<10% conversion after 1 h))	🔴	🔴	🟡*	🔴	🔴	🔴	–
B1	–	–	–	–	–	–	–	–	–	–	binds
